Source: patent US20150087722A1, “TREATMENT FOR BREAST TUMOR CELL METASTASIS” (China Medical University, priority 2012, published 2015)

Experiments:
Format in all cases: cell-based, human
[1] = tested on: Her-2/neu, p-Tyrosine, PI3K and Akt in breast tumor cells MDA-MB-453; experiment: western blotting of Her-2/neu-related proteins
Procedure: The steps of western blotting include: washing cells with PBS twice at 4° C.; adding a lysis buffer and rubbing the cells by a rubbr policeman so as to lyse cells; putting the lysed cell solution into a 1.5 ml microcentrifuge tube and shaking for 1 min; centrifuging at 12000 rpm for 10 min and taking the supernatant; measuring concentration of the protein through a Bio-Rad protein assay kit; and storing the remained extracted protein solution at −70° C.; taking 100 μg protein solution and adding a SDS/protein loading buffer having the same volume, where the SDS/protein loading buffer has a concentration two times larger than the protein solution; boiling the mixture of the protein solution and the SDS/protein loading buffer at 100° C. for 10 min; cooling and loading the protein samples in each hole of gel; adjusting the voltage to 100 V and running the protein samples on the gel until the tracking dye in the sample buffer reaches the bottom of the gel; and subsequently transferring the protein from the gel using electrophoresis. A PVDF membrane was soaked in methanol until the paper was totally wet. The paper was arranged in a transfer tank placed in a 4° C. ice box, and the protein transfer was performed at a current of […] for 4 h. The PVDF membrane was then taken out, placed in a PBS blocking solution including 1% BSA and shaken for 2 h. Then the PVDF membrane was placed in a blocking solution including a primary antibody and slowly shaken at 100 rpm for 1 h at the room temperature. […] Then luminescence image equipment was used, where the PVDF was placed onto a black metal plate by a plastic pincer and the face including protein was upwards, a 1:1 mixed Chemiluminesent Substrate was added into the membrane and the exposure time depends on the fluorescence intensity of antibodies. […] FIG. 22 illustrates expression results of Her-2/neu-related proteins used for facilitating survival of tumor cells when compounds of formula (I) in different doses were added, which were detected by the western blotting. […]

[2] = tested on: breast tumor cells MDA-MB-231; experiment: colony formation assay; details: MDA-MB-231, 24 h treatment, FIG. 1B
From the text: In order to know the effect of the compound II on the colony formation of the breast tumor cells MDA-MB-231, the cells were observed through a colony formation assay.

[3] = tested on: EMT-related proteins in breast tumor cells MCF-7; experiment: western blotting of EMT-related proteins; details: MCF-7, 10, 15 and 20 μM, 24 h, with dose increasing
Procedure: (§1) FIG. 2A illustrates the expression results of EMT-related proteins in breast tumor cells MDA-MB-231 after the breast tumor cells MDA-MB-231 have been respectively cultured under compound II having concentrations of 0, 0.5, 1 and 2 μM for 24 h; and FIG. 2B illustrates the expression results of EMT-related proteins in breast tumor cells MCF-7 after the breast tumor cells MCF-7 have been respectively cultured under the compound II having concentrations of 0, 10, 15 and 20 μM for 24 h. FIG. 3A illustrates the western blotting results of EMT-related proteins in the breast tumor cells MDA-MB-468, where the breast tumor cells MDA-MB-468 are treated with the compound I having concentrations of 0, 0.5, 1 and 2 μM for 24 h, and FIG. 3B illustrates the western blotting results of EMT-related proteins in the breast tumor cells MDA-MB-435, where the breast tumor cells MDA-MB-435 are treated with the compound I having concentrations of 0, 2.5, 5 and 7.5 μM for 24 h. FIG. 4 illustrates the western blotting results of EMT-related proteins in the human normal breast cells MCF-10A stimulated by TNF-α/TGF-β, where the human normal breast cells MCF-10A are treated with the compound I having concentrations of 2 μM for 24 h. The human normal breast cells stimulated by TNF-α/TGF-β can cause TNF-α/TGF-β-induced EMT in the human normal breast cells MCF-10A. The steps of western blotting include: washing cells with PBS twice at 4° C.; adding a lysis buffer and rubbing the cells by a rubbr policeman so as to lyse cells; putting the lysed cell solution into a 1.5 ml microcentrifuge tube and shaking for 1 min; centrifuging at 12000 rpm for 10 min and taking the supernatant; measuring concentration of the protein through a Bio-Rad protein assay kit; and storing the remained extracted protein solution at −70° C.; taking 100 μg protein solution and adding a SDS/protein loading buffer having the same volume, where the SDS/protein loading buffer has a concentration two times larger than the protein solution; boiling the mixture of the protein solution and the SDS/protein loading buffer at 100° C. for 10 min; cooling and loading the protein samples in each hole of gel; adjusting the voltage to 100 V and running the protein samples on the gel until the tracking dye in the sample buffer reaches the bottom of the gel; and subsequently transferring the protein from the gel using electrophoresis. A PVDF membrane was soaked in methanol until the paper was totally wet. The paper was arranged in a transfer tank placed in a 4° C. ice box, and the protein transfer was performed at a current of […] for 4 h. The PVDF membrane was then taken out, placed in a PBS blocking solution including 1% BSA and shaken for 2 h. Then the PVDF membrane was placed in a blocking solution including a primary antibody and slowly shaken at 100 rpm for 1 h at the room temperature. Subsequently the PVDF membrane was washed with PBST for third times, each time for 3-5 min. According to different […] and different dilution ratios, the PVDF membrane was shaken for 2 h on a horizontal rotator and then washed with PBST for three times. Then luminescence image equipment was used, where the PVDF was placed onto a black metal plate by a plastic pincer and the face including protein was upwards, a 1:1 mixed Chemiluminesent Substrate was added into the membrane and the exposure time depends on the fluorescence intensity of antibodies.

[4] = tested on: EMT-related proteins in breast tumor cells MDA-MB-435; experiment: western blotting of EMT-related proteins; details: MDA-MB-435, 2.5, 5 and 7.5 μM, 24 h, with dose increasing
Procedure: as §1

[5] = tested on: EMT-related proteins in breast tumor cells MDA-MB-468; experiment: western blotting of EMT-related proteins; details: MDA-MB-468, 0.5, 1 and 2 μM, 24 h, with dose increasing
Procedure: as §1

SMILES	expression of Her-2/neu and p-Tyrosine ([1]; 40 μM)	expression amount of p-Tyrosine activated by Her-2/neu ([1]; 10-60 μM, with increasing concentration)	protein expression of PI3K and Akt ([1]; high concentration)	colony formation of breast tumor cells [2]	expression amount of E-cadherin, p-β-catenin and occludin [3]	expression amount of proteins facilitating tumor cell proliferation (Twist, Snail, vimentin, β-catenin) [3]	expression amount of E-cadherin and occludin [4]	expression amount of proteins facilitating tumor cell proliferation (Snail, vimentin, β-catenin) [4]	expression amount of E-cadherin and occludin [5]	expression amount of proteins facilitating tumor cell proliferation (Snail, vimentin, β-catenin) [5]
COC1=C(OC)C(=O)C(C)=C(C)C1=O [compound II]	totally inhibited	significantly decreased	inhibited	significantly inhibit colony formation	increased	decreased	–	–	–	–
COC1=C(OC)C(=O)C(C)=CC1=O [compound I]	–	–	–	–	–	–	increased	decreased	increased	decreased
